Here are results for 1 molecule from patent US20050176826A1, “Use of asc-1 inhibitors to treat neurological and psychiatric disorders” (H. Lundbeck A/S, priority 2002, published 2005).

The target in test [1] is T1, D-serine uptake in rat cerebellar synaptosomes (Rattus norvegicus, UniProt P63116).
T1 construct: from tissue; host or cells: rat cerebellar synaptosomes
T1 sequence (P63116 1-530): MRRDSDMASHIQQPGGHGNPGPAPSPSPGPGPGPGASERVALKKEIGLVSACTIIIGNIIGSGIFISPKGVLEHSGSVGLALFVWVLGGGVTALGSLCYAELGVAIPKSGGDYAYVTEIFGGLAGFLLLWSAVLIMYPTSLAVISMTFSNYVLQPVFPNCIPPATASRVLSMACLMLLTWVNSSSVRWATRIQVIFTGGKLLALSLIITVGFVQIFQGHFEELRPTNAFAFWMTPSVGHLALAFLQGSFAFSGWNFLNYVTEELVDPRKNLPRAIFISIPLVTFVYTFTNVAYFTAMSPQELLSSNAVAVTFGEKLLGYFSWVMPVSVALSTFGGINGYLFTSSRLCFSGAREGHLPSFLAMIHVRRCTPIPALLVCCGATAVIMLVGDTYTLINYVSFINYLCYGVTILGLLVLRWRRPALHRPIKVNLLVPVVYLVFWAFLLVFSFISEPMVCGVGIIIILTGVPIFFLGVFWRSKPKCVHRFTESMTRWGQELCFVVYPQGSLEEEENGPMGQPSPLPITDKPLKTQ
T1 sequence (Q794F9 1-527 partner): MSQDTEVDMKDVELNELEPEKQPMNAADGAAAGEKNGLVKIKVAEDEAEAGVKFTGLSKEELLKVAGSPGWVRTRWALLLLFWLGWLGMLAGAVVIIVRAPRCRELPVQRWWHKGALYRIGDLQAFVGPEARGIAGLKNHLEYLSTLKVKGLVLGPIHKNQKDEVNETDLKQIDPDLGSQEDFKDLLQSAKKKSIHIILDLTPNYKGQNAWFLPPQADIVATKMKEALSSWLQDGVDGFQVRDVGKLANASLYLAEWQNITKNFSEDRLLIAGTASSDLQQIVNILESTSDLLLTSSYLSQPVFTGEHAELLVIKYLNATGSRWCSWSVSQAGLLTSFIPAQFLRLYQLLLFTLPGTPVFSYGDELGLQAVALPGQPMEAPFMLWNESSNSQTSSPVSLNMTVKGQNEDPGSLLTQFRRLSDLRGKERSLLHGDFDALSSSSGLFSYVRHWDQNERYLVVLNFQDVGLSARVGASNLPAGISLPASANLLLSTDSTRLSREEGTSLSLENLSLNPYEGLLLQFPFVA
In words: [3H]D-serine uptake in rat cerebellar synaptosomes. The format is biochemical.

The target in test [2] is T2, serotonin (5-HT) uptake (Rattus norvegicus, UniProt P31652).
T2 construct: from tissue; host or cells: synaptosomes from whole rat brain excluding cerebellum
T2 sequence (P31652 whole entry): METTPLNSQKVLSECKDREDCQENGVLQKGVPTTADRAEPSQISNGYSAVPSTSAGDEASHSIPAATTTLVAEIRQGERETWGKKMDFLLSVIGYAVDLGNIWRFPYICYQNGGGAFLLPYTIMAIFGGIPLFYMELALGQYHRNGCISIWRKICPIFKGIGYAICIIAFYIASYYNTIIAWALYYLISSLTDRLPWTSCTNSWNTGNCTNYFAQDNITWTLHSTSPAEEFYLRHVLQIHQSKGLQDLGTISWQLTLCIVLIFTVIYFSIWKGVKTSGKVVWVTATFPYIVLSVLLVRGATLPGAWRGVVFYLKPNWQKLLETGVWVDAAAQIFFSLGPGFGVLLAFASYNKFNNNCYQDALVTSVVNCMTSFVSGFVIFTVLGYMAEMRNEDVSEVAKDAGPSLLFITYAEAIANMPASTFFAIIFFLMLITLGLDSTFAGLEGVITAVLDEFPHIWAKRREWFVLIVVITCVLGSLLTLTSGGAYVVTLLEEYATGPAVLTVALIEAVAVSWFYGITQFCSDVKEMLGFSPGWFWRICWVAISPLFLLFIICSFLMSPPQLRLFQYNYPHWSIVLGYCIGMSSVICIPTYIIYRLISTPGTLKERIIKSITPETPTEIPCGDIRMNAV
In words: [3H]serotonin uptake into rat brain synaptosomes. The format is biochemical. How it is done:
(§1) Inhibition of serotonin (5-HT), dopamine (DA) and noradrenaline (NA) uptake in vitro was measured in rat brain synaptosomes using a modification of a previously described protocol (Bøgesø et al., J Med Chem 1985, 28, 1817-1828). In brief, tritium labelled amines were used to measure uptake into synaptosomes from whole rat brain (excluding cerebellum) ([^3H]serotonin), rat striatal synaptosomes ([^3H]dopamine) or into rat cortical synaptosomes [^3H]noradrenalin. The dissected rat brain regions were homogenized in 0.40 M sucrose supplemented with 1 mM nialamid and centrifuged at 1000×g for 10 min. The supernatants were further centrifuged for 30 min at 20.000×g, 4° C. and resuspended in Krebs-Ringer buffer, pH 7.4 supplemented with 0.2 g/l ascorbic acid. Test compounds and membranes were added in 96 well plates and the incubation was started by adding either 10 nM [^3H]serotonin, 12.5 nM [^3H]dopamine or 10 nM [^3H]noradrenalin for 15 min at 37° C. except for [^3 H]dopamine uptake (5 min at 20° C.). Non-specific uptake was defined as uptake in the presence of 10 μM citalopram, 100 μM benttropin or 20 μM talsupram, respectively and accounted for 5-10% of total uptake. Samples were filtered over Whatman GF/C filters and the IC50's were estimated using non-linear regression analysis from at least 8 points dose-response curves with triplicate determinations.

The target of test [3] is T3, dopamine (DA) uptake (Rattus norvegicus, UniProt P23977).
T3 construct: from tissue; host or cells: rat striatal synaptosomes
T3 sequence (P23977 whole entry): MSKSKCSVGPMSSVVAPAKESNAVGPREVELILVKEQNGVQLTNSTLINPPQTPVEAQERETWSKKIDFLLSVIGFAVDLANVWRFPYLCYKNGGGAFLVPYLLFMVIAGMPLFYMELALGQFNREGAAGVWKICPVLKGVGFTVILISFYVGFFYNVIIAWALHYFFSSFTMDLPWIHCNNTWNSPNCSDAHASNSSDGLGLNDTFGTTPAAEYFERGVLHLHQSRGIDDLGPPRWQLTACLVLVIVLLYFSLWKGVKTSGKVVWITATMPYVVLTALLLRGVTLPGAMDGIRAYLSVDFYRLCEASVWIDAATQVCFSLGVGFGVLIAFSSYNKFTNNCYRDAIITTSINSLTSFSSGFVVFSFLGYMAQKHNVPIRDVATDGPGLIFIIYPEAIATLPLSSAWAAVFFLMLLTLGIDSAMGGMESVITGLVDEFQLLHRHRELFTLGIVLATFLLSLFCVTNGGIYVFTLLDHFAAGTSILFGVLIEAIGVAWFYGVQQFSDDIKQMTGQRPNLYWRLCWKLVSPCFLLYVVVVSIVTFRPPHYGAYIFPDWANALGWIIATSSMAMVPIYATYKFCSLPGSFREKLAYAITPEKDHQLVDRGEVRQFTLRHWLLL
The test can be described thus: [3H]dopamine uptake into rat striatal synaptosomes. The format is biochemical. How it is done: as §1

The target of test [4] is T4, human GlyT-1B (Homo sapiens, UniProt P48067).
T4 construct: expressed in transfected cells; host or cells: CHO cells
T4 sequence (P48067 1-652 isoform P48067-3): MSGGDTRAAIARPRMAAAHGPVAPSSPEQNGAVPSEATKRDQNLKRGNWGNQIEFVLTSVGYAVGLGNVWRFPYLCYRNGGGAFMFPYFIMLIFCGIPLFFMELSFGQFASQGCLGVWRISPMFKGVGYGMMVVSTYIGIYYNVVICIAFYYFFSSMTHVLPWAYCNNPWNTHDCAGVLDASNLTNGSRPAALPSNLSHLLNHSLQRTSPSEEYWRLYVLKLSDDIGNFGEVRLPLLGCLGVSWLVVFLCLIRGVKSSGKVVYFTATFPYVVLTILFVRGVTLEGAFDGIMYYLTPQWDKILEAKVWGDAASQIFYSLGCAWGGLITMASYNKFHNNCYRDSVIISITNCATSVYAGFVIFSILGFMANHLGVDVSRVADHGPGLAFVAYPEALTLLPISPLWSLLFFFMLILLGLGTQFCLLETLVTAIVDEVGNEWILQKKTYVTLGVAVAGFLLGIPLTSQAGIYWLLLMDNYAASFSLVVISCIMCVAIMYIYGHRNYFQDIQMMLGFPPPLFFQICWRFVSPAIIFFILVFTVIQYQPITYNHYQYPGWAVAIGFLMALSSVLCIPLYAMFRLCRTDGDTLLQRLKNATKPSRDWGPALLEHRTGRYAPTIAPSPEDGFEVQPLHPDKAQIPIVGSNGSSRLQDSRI
The test can be described thus: [3H]-glycine uptake into CHO cells expressing human GlyT-1B. The class given is cell-based. How it is done: Measurements of [^3H]-glycine uptake into CHO cells expressing human GlyT-1B were performed in 96 well plates using 1 μCi [^3H]-glycine/well. Cells were plated 2 days before the experiment and washed twice with assay buffer (composition: 150 mM NaCl, 10 mM glucose, 2.5 mM KCl, 1 mM CaCl2, 2.5 mM MgSO4, 10 mM HEPES, pH 7.4). Test compounds were added 10 min before radioligand and cells were incubated for a further 15 min at 37° C. Cells were washed as described for [3 H]-D-serine uptake into asc-1 cells. Non-specific uptake was defined as uptake in the presence of 100 μM N-methyl-N-(phenyl-trifluoromethylphenoxy)propan-1-yl-glycine.

Molecules are shown by their SMILES. pKi: −log10 of the molar value. Where only a bound is given, the exact number is not on record here.

A word on the pKi: it is −log10 of the Ki, conventionally taken in molar units. A low value points to a high Ki. Turning to `CSCC(N)C(=O)O` (stereo in doubt) [(S)-methyl-L-cysteine], the “inhibition of D-serine uptake in rat cerebellar synaptosomes (in words)” value in test [1] is “potent and selective inhibitor”. Moreover, the pKi was less than 3.00 in test [2], less than 3.00 in test [3] and less than 4.00 in test [4].
